Results from ChEMBL document CHEMBL3046898, “Synthesis and characterization of flurbiprofen hydrazide derivatives as potential anti-HCV, anticancer and antimicrobial agents” (2013).
Calls of active or inactive are those of the source. The calls are words filed in the database; no cut-off is given here.

Key:
[1] = tested on: Staphylococcus aureus; experiment: Antibacterial activity against Staphylococcus aureus at 6.25 to 200 ug/ml after 24 hrs by microwell dilution assay; assay type: functional, organism-based
[2] = tested on: Acinetobacter radioresistens; experiment: Antibacterial activity against Acinetobacter radioresistens at 6.25 to 200 ug/ml after 24 hrs by microwell dilution method; assay type: functional, organism-based
[3] = tested on: Pseudomonas aeruginosa; experiment: Antibacterial activity against Pseudomonas aeruginosa at 10 mg/ml after 24 hrs by disc diffusion method; assay type: functional, organism-based
[4] = tested on: Photorhabdus luminescens; experiment: Antibacterial activity against Photorhabdus luminescens at 10 mg/ml after 24 hrs by disc diffusion method; assay type: functional, organism-based
[5] = tested on: Nakaseomyces glabratus; experiment: Antifungal activity against Candida glabrata at 10 mg/ml after 48 hrs by disc diffusion method; assay type: functional, organism-based
[6] = tested on: Staphylococcus cohnii; experiment: Antibacterial activity against Staphylococcus cohnii at 10 mg/ml after 24 hrs by disc diffusion method; assay type: functional
[7] = tested on: Candida parapsilosis; experiment: Antifungal activity against Candida parapsilosis at 10 mg/ml after 48 hrs by disc diffusion method; assay type: functional, organism-based
[8] = tested on: Micrococcus lylae; experiment: Antibacterial activity against Micrococcus lylae at 10 mg/ml after 24 hrs by disc diffusion method; assay type: functional, organism-based
[9] = tested on: Hepacivirus hominis; experiment: Inhibition of HCV N-terminal His-tagged NS5B RNA dependent RNA polymerase expressed in Escherichia coli DH5alpha using poly rA/U12 as primer at 200 uM after 60 mins by liquid scintillation counting
[10] = tested on: Escherichia coli; experiment: Antibacterial activity against Escherichia coli at 6.25 to 200 ug/ml after 24 hrs by microwell dilution method; assay type: functional, organism-based
[11] = tested on: Pichia membranifaciens; experiment: Antifungal activity against Pichia membranifaciens at 10 mg/ml after 48 hrs by disc diffusion method; assay type: functional, organism-based
[12] = tested on: Klebsiella aerogenes; experiment: Antibacterial activity against Enterobacter aerogenes at 6.25 to 200 ug/ml after 24 hrs by microwell dilution method; assay type: functional, organism-based
[13] = tested on: Salmonella paratyphi; experiment: Antibacterial activity against Salmonella paratyphi at 10 mg/ml after 24 hrs by disc diffusion method; assay type: functional, organism-based; settings: Salmonella enterica subsp. enterica serovar Paratyphi A
[14] = tested on: Escherichia coli; experiment: Antibacterial activity against Escherichia coli at 10 mg/ml after 24 hrs by disc diffusion method; assay type: functional, organism-based
[15] = tested on: Proteus vulgaris; experiment: Antibacterial activity against Proteus vulgaris at 10 mg/ml after 24 hrs by disc diffusion method; assay type: functional, organism-based
[16] = tested on: Pseudomonas aeruginosa; experiment: Antibacterial activity against Pseudomonas aeruginosa at 6.25 to 200 ug/ml after 24 hrs by microwell dilution method; assay type: functional, organism-based
[17] = tested on: Photorhabdus luminescens; experiment: Antibacterial activity against Photorhabdus luminescens at 6.25 to 200 ug/ml after 24 hrs by microwell dilution method; assay type: functional, organism-based
[18] = tested on: Klebsiella aerogenes; experiment: Antibacterial activity against Enterobacter aerogenes at 10 mg/ml after 24 hrs by disc diffusion method; assay type: functional, organism-based
[19] = tested on: Proteus vulgaris; experiment: Antibacterial activity against Proteus vulgaris at 6.25 to 200 ug/ml after 24 hrs by microwell dilution method; assay type: functional, organism-based
[20] = tested on: Aspergillus; experiment: Antifungal activity against Aspergillus at 10 mg/ml after 72 hrs by disc diffusion method; assay type: functional, organism-based
[21] = tested on: Staphylococcus cohnii; experiment: Antibacterial activity against Staphylococcus cohnii at 6.25 to 200 ug/ml after 24 hrs by microwell dilution assay; assay type: functional, organism-based
[22] = tested on: Micrococcus luteus; experiment: Antibacterial activity against Micrococcus luteus at 6.25 to 200 ug/ml after 24 hrs by microwell dilution method; assay type: functional, organism-based
[23] = tested on: Acinetobacter radioresistens; experiment: Antibacterial activity against Acinetobacter radioresistens at 10 mg/ml after 24 hrs by disc diffusion method; assay type: functional, organism-based
[24] = tested on: Candida tropicalis; experiment: Antifungal activity against Candida tropicalis at 10 mg/ml after 48 hrs by disc diffusion method; assay type: functional, organism-based
[25] = tested on: Kluyveromyces marxianus; experiment: Antifungal activity against Kluyveromyces marxianus at 10 mg/ml after 48 hrs by disc diffusion method; assay type: functional, organism-based
[26] = tested on: Micrococcus luteus; experiment: Antibacterial activity against Micrococcus luteus at 10 mg/ml after 24 hrs by disc diffusion method; assay type: functional, organism-based
[27] = tested on: Schwanniomyces occidentalis; experiment: Antifungal activity against Schwanniomyces occidentalis at 10 mg/ml after 48 hrs by disc diffusion method; assay type: functional, organism-based
[28] = tested on: Micrococcus lylae; experiment: Antibacterial activity against Micrococcus lylae at 6.25 to 200 ug/ml after 24 hrs by microwell dilution method; assay type: functional, organism-based
[29] = tested on: Staphylococcus aureus; experiment: Antibacterial activity against Staphylococcus aureus at 10 mg/ml after 24 hrs by disc diffusion method; assay type: functional
[30] = tested on: Salmonella paratyphi; experiment: Antibacterial activity against Salmonella paratyphi at 6.25 to 200 ug/ml after 24 hrs by microwell dilution method; assay type: functional, organism-based; settings: Salmonella enterica subsp. enterica serovar Paratyphi A
[31] = tested on: Candida albicans; experiment: Antifungal activity against Candida albicans at 10 mg/ml after 48 hrs by disc diffusion method; assay type: functional, organism-based

Structure (SMILES)	Activity [1]	Activity [2]	Activity [3]	Activity [4]	Activity [5]	Activity [6]	Activity [7]	Activity [8]	inhibition [9] [%]	Activity [10]	Activity [11]	Activity [12]	Activity [13]	Activity [14]	Activity [15]	Activity [16]	Activity [17]	Activity [18]	Activity [19]	Activity [20]	further results
CC(C(=O)NN1C(=O)CSC1c1ccc([N+](=O)[O-])cc1)c1ccc(-c2ccccc2)c(F)c1 (configuration not stated)	inactive	inactive	inactive	inactive	inactive	inactive	inactive	inactive	8	inactive	inactive	inactive	inactive	inactive	inactive	inactive	inactive	inactive	inactive	inactive	Activity [21]: inactive; Activity [22]: inactive; Activity [23]: inactive; Activity [24]: inactive; Activity [25]: inactive; Activity [26]: inactive; Activity [27]: inactive; Activity [28]: inactive; Activity [29]: inactive; Activity [30]: inactive; Activity [31]: inactive
CC(C(=O)NNC(=S)NCc1ccccc1)c1ccc(-c2ccccc2)c(F)c1 (configuration not stated)	inactive	inactive	inactive	inactive	inactive	inactive	inactive	inactive	8	inactive	inactive	inactive	inactive	inactive	inactive	inactive	inactive	inactive	inactive	inactive	Activity [21]: inactive; Activity [22]: inactive; Activity [23]: inactive; Activity [24]: inactive; Activity [25]: inactive; Activity [26]: inactive; Activity [27]: inactive; Activity [28]: inactive; Activity [29]: inactive; Activity [30]: inactive; Activity [31]: inactive
CC(C(=O)N/N=C/c1ccc([N+](=O)[O-])o1)c1ccc(-c2ccccc2)c(F)c1 (configuration not stated)	inactive	inactive	inactive	inactive	inactive	inactive	inactive	inactive	8	inactive	inactive	inactive	inactive	inactive	inactive	inactive	inactive	inactive	inactive	inactive	Activity [21]: inactive; Activity [22]: inactive; Activity [23]: inactive; Activity [24]: inactive; Activity [25]: inactive; Activity [26]: inactive; Activity [27]: inactive; Activity [28]: inactive; Activity [29]: inactive; Activity [30]: inactive; Activity [31]: inactive
CC(C(=O)N/N=C/c1ccccc1F)c1ccc(-c2ccccc2)c(F)c1 (configuration not stated)	inactive	inactive	inactive	inactive	inactive	inactive	inactive	inactive	8	inactive	inactive	inactive	inactive	inactive	inactive	inactive	inactive	inactive	inactive	inactive	Activity [21]: inactive; Activity [22]: inactive; Activity [23]: inactive; Activity [24]: inactive; Activity [25]: inactive; Activity [26]: inactive; Activity [27]: inactive; Activity [28]: inactive; Activity [29]: inactive; Activity [30]: inactive; Activity [31]: inactive
CC(C(=O)NN1C(=O)CSC1c1c(F)cccc1F)c1ccc(-c2ccccc2)c(F)c1 (configuration not stated)	inactive	inactive	inactive	inactive	inactive	inactive	inactive	inactive	8	inactive	inactive	inactive	inactive	inactive	inactive	inactive	inactive	inactive	inactive	inactive	Activity [21]: inactive; Activity [22]: inactive; Activity [23]: inactive; Activity [24]: inactive; Activity [25]: inactive; Activity [26]: inactive; Activity [27]: inactive; Activity [28]: inactive; Activity [29]: inactive; Activity [30]: inactive; Activity [31]: inactive
CC(C(=O)NNC(=S)Nc1ccccc1)c1ccc(-c2ccccc2)c(F)c1 (configuration not stated)	inactive	inactive	inactive	inactive	inactive	inactive	inactive	inactive	8	inactive	inactive	inactive	inactive	inactive	inactive	inactive	inactive	inactive	inactive	inactive	Activity [21]: inactive; Activity [22]: inactive; Activity [23]: inactive; Activity [24]: inactive; Activity [25]: inactive; Activity [26]: inactive; Activity [27]: inactive; Activity [28]: inactive; Activity [29]: inactive; Activity [30]: inactive; Activity [31]: inactive
CC(C(=O)N/N=C/c1ccc(C(F)(F)F)cc1)c1ccc(-c2ccccc2)c(F)c1 (configuration not stated)	inactive	inactive	inactive	inactive	inactive	inactive	inactive	inactive	8	inactive	inactive	inactive	inactive	inactive	inactive	inactive	inactive	inactive	inactive	inactive	Activity [21]: inactive; Activity [22]: inactive; Activity [23]: inactive; Activity [24]: inactive; Activity [25]: inactive; Activity [26]: inactive; Activity [27]: inactive; Activity [28]: inactive; Activity [29]: inactive; Activity [30]: inactive; Activity [31]: inactive
